The source of these data is patent US9957265B2, “N-(2-cyano heterocyclyl) pyrazolo pyridones as janus kinase inhibitors” (Merck Sharp & Dohme Corp., priority 2013, dated 2018).

Read-outs that look alike come from different tables or passages of the source.

The target of test [1] is JAK1 (Homo sapiens (Human), UniProt P23458). Description: Jak Biochemical HTRF Assay (JAK1). As to conditions: recombinant GST-tagged catalytic domain, [ATP] 31.8 μM, unit not given (compound concentrations tested given in nM). The text has this:
Jak Biochemical HTRF Assay Protocol
Subsequent reagent additions employed an Agilent Bravo.
For orientation: In TR-FRET formats the signal depends on donor and acceptor labels being close together.

Test [2] has as its target JAK2 (Homo sapiens (Human), UniProt O60674). In words: Jak Biochemical HTRF Assay (JAK2).
Experimental: The ability of compounds to inhibit the activity of JAK1, JAK2, JAK3, and TYK2 was measured using a recombinant purified GST-tagged catalytic domain for each enzyme (Invitrogen JAK1 #M4290, JAK2 #M4290, JAK3 #M4290, TYK2 #M4290) in an HTRF format biochemical assay. […] Subsequent reagent additions employed an Agilent Bravo. […] After equilibration, 2 μL of 10×ATP in 1× assay buffer was added to initiate the kinase reaction and the plates were shaken and then incubated at room temperature for 120 minutes. […] After normalization to untreated controls, the percent inhibition of the HTRF signal at each compound concentration was calculated. The plot of percent inhibition versus the log of compound concentration was fit with a 4-parameter dose response equation to calculate IC50 values.
Final reaction conditions were:
Setting [3] is: JAK2 IC50, recombinant GST-tagged catalytic domain, [ATP] 8.5 μM, unit not given (compound concentrations tested given in nM).
Setting [4] is: read-out: JAK2 IC50, recombinant GST-tagged catalytic domain, [ATP] 8.5 μM, unit not given (compound concentrations tested given in nM).

Chain of JAK2 (O60674 849-1124): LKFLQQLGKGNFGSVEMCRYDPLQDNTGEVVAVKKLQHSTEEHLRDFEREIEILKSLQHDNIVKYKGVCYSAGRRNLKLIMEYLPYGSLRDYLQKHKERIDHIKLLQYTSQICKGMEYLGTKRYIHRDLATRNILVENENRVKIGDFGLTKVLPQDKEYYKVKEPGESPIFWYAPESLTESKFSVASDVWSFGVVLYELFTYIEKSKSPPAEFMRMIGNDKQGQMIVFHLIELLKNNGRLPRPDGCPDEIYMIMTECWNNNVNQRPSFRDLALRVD
Chain of JAK1 (P23458 875-1153): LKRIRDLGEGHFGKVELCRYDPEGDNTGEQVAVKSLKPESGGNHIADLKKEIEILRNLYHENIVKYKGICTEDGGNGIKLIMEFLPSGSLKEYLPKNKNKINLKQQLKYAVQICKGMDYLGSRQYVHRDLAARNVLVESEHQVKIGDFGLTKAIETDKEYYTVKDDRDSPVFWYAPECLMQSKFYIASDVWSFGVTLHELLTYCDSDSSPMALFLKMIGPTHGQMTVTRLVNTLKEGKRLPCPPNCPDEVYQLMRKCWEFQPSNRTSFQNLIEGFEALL

For the compound `N#C[C@H]1CCOCC1n1nc(Nc2ccc(C(O)(c3ccccn3)C(F)(F)F)cc2)c2c(=O)[nH]ccc21` (single isomer, unassigned) [Example 1-97, (3R,4S)-3-(4-oxo-3-((4-((S or R)-2,2,2-trifluoro-1-hydroxy-1-(pyridin-2-yl)ethyl)phenyl)amino)-4,5-dihydro-1H-pyrazolo[4,3-c]pyridin-1-yl)tetrahydro-2H-pyran-4-carbonitrile], the results for the IC50 in test [1] and in test [2] (setting [3]) were 0.14 nM and 0.18 nM, respectively.
For the compound `CC(C)(C)S(=O)(=O)c1ccc(Nc2nn([C@@H]3COCCC[C@@H]3C#N)c3cc[nH]c(=O)c23)cc1` (single isomer, unassigned) [Example 1-25, (3S,4S or 3R,4R)-3-(3-{[4-(tert-butylsulfonyl)phenyl]amino}-4-oxo-4,5-dihydro-1H-pyrazolo[4,3-c]pyridin-1-yl)oxepane-4-carbonitrile], the IC50 worked out at 2.27 nM in test [1] and 3.43 nM in test [2] (setting [3]).
Regarding `CCNC(c1ccc(Nc2nn([C@H]3COCC[C@@H]3C#N)c3cc[nH]c(=O)c23)cc1)C(F)(F)F` (single isomer, unassigned) [Example 1-54, (3R,4S)-3-[3-({4-[(1R or 1S)-1-(ethylamino)-2,2,2-trifluoroethyl]phenyl}amino)-4-oxo-4,5-dihydro-1H-pyrazolo[4,3-c]pyridin-1-yl]tetrahydro-2H-pyran-4-carbonitrile], the IC50 stood at 0.07 nM in test [1] and 0.14 nM in test [2] (setting [3]).
As to `CC(C)NC1(C)C(=O)Nc2cc(Nc3nn(C4COCC[C@@H]4C#N)c4cc[nH]c(=O)c34)ccc21` (single isomer, unassigned) [Example 1-100, (3R,4S)-3-[3-({(3R or 3S)-3-methyl-3-[(1-methylethyl)amino]-2-oxo-2,3-dihydro-1H-indol-6-yl}amino)-4-oxo-4,5-dihydro-1H-pyrazolo[4,3-c]pyridin-1-yl] tetrahydro-2H-pyran-4-carbonitrile], the IC50 is 0.06 nM in test [1] and 0.05 nM in test [2] (setting [3]).
As for `CC(C)CN1Cc2ccc(Nc3nn([C@H]4COCC[C@@H]4C#N)c4cc[nH]c(=O)c34)cc2C1` [Example 1-14, (3R,4S)-3-(3-{[2-(2-methylpropyl)-2,3-dihydro-1H-isoindol-5-yl]amino}-4-oxo-4,5-dihydro-1H-pyrazolo[4,3-c]pyridin-1-yl)tetrahydro-2H-pyran-4-carbonitrile], the IC50 in test [1] is 0.22 nM; in test [2] (setting [4]), 0.41 nM.
For the compound `N#C[C@H]1CCOCC1n1nc(Nc2ccc(C(O)(c3ccccn3)C(F)(F)F)cc2)c2c(=O)[nH]ccc21` (single isomer, unassigned) [Example 1-96, (3R,4S)-3-(4-oxo-3-((4-((S or R)-2,2,2-trifluoro-1-hydroxy-1-(pyridin-2-yl)ethyl)phenyl)amino)-4,5-dihydro-1H-pyrazolo[4,3-c]pyridin-1-yl)tetrahydro-2H-pyran-4-carbonitrile], the IC50 amounted to 0.07 nM in test [1] and 0.15 nM in test [2] (setting [3]).
Taken in the same sequence, the figures for `N#C[C@H]1CCOC[C@@H]1n1nc(Nc2ccc(C(N3CCNCC3)C(F)(F)F)cc2)c2c(=O)[nH]ccc21` (single isomer, unassigned) [Example 1-38, (3R,4S)-3-[4-oxo-3-({4-[(1R or 1S)-2,2,2-trifluoro-1-piperazin-1-ylethyl]phenyl}amino)-4,5-dihydro-1H-pyrazolo[4,3-c]pyridin-1-yl]tetrahydro-2H-pyran-4-carbonitrile] were 0.09 nM and 0.13 nM.
Taken in the same sequence, the figures for `CC(C)(C)CNC(c1ccc(Nc2nn([C@H]3COCC[C@@H]3C#N)c3cc[nH]c(=O)c23)cc1)C(F)(F)F` (single isomer, unassigned) [Example 1-82, (3R,4S)-3-{3-[(4-{[1S or 1R)-1-[(2,2-dimethylpropyl)amino]-2,2,2-trifluoroethyl}phenyl)amino]-4-oxo-4,5-dihydro-1H-pyrazolo[4,3-c]pyridin-1-yl} tetrahydro-2H-pyran-4-carbonitrile] were 0.87 nM and 2.56 nM.
Taken in the same sequence, the figures for `CC(C)(C)OC(=O)CNC(c1ccc(Nc2nn([C@H]3COCC[C@@H]3C#N)c3cc[nH]c(=O)c23)cc1)C(F)(F)F` (single isomer, unassigned) [Example 1-41, tert-butyl N-{(1S or 1R)-1-[4-({1-[(3R,4S)-4-cyanotetrahydro-2H-pyran-3-yl]-4-oxo-4,5-dihydro-1H-pyrazolo[4,3-c]pyridin-3-yl}amino)phenyl]-2,2,2-trifluoroethyl}glycinate] were 0.14 nM and 0.6 nM.
As for `N#C[C@H]1CCOC[C@@H]1n1nc(Nc2ccc(C3(C(F)(F)F)CCCCN3)cc2)c2c(=O)[nH]ccc21` (single isomer, unassigned) [Example 2-7, (3R,4S)-3-[4-oxo-3-({4-[(2S or 2R)-2-(trifluoromethyl)piperidin-2-yl]phenyl}amino)-4,5-dihydro-1H-pyrazolo[4,3-c]pyridin-1-yl] tetrahydro-2H-pyran-4-carbonitrile], the IC50 in test [1] was 0.05 nM; in test [2] (setting [3]), 0.06 nM.
For the compound `N#C[C@H]1CCOC[C@@H]1n1nc(Nc2ccc(C(NC3CC3)C(F)(F)F)cc2)c2c(=O)[nH]ccc21` (single isomer, unassigned) [Example 1-81, (3R,4S)-3-[3-({4-[(1R or 1S)-1-(cyclopropylamino)-2,2,2-trifluoroethyl]phenyl}amino)-4-oxo-4,5-dihydro-1H-pyrazolo[4,3-c]pyridin-1-yl]tetrahydro-2H-pyran-4-carbonitrile], the values for the IC50 in test [1] and in test [2] (setting [4]) were 0.08 nM and 0.15 nM, respectively.
Regarding `N#C[C@H]1CCOC[C@@H]1n1nc(Nc2ccc(C(NC3CCCC3)C(F)(F)F)cc2)c2c(=O)[nH]ccc21` (single isomer, unassigned) [Example 1-84, (3R,4S)-3-[3-({4-[(1S or 1R)-1-(cyclopentylamino)-2,2,2-trifluoroethyl]phenyl}amino)-4-oxo-4,5-dihydro-1H-pyrazolo[4,3-c]pyridin-1-yl]tetrahydro-2H-pyran-4-carbonitrile], the figures for the IC50 in test [1] and in test [2] (setting [3]) were 0.13 nM and 0.15 nM, respectively.
Taken in the same sequence, the figures for `CC1CCN1S(=O)(=O)c1ccc(Nc2nn([C@H]3COCC[C@@H]3C#N)c3cc[nH]c(=O)c23)cc1` (single isomer, unassigned) [Example 1-78, (3R,4S)-3-{3-[(4-{[(2S or 2R)-2-methylazetidin-1-yl]sulfonyl}phenyl)amino]-4-oxo-4,5-dihydro-1H-pyrazolo[4,3-c]pyridin-1-yl}tetrahydro-2H-pyran-4-carbonitrile] were 0.12 nM and 0.24 nM.
Taken in the same sequence, the figures for `CC1CCCN1C(c1ccc(Nc2nn([C@H]3COCC[C@@H]3C#N)c3cc[nH]c(=O)c23)cc1)C(F)(F)F` (single isomer, unassigned) [Example 1-89, (3R,4S)-3-{4-oxo-3-[(4-{(1R or 1S)-2,2,2-trifluoro-1-[(2R or 2S)-2-methylpyrrolidin-1-yl]ethyl}phenyl)amino]-4,5-dihydro-1H-pyrazolo[4,3-c]pyridin-1-yl}tetrahydro-2H-pyran-4-carbonitrile] were 0.15 nM and 0.14 nM.
